What was measured:
red blood cells (RBCs) = assay: In vitro hemolytic test; type: cell-based; conditions: artemether 2 mg/mL in 5% DMSO; 4% v/v rat RBCs, 37 °C, 1 h; positive control Triton X 100
Method: This test was performed to examine the hemolytic potential of artemether-loaded zein nanoparticles and the formulation ingredients on red blood cells (RBCs). Freshly collected rat blood was centrifuged at 1500× g for 10 min at 4 °C. The plasma was collected for other purpose. The remaining RBCs were washed with PBS and then centrifuged at 1500× g at 4 °C for 5 min. After two repeats of such procedures, the RBCs were diluted 25 times with PBS to make a 4% v/v RBCs dispersion. Such RBCs were kept at 4 °C and used within 24 h. The impact of artemether-loaded zein nanoparticles containing 2 mg/mL artemether, raw artemether in 5% v/v aqueous DMSO solution (2 mg/mL), 5% v/v aqueous DMSO solution, sodium caseinate (7.5 mg/mL) solution, artemether (2 mg/mL) together with sodium caseinate (7.5 mg/mL) solution was assessed. PBS and 1% v/v Triton-X 100 solution were assessed by adding 1 mL of the test solutions each to 1 mL of the 4% v/v RBCs dispersion. Each sample was incubated with the RBCs at 37 °C for 1 h and then centrifuged at 1500× g for 10 min. The absorbance of the supernatant was taken at 550 nm with U-2900 UV spectrophotometer (Hitachi, Japan). Percentage haemolysis was calculated as follows:(3) Hemolysis (%)=AbsorbanceTest group−AbsorbancePBS/AbsorbanceTriton−X100−AbsorbancePBS×100%

[1] = In vitro release study (sample and separate method); type: physicochemical; conditions: PBS pH 7.4, 37 °C, sink conditions; n = 3
Method: The dissolution profile of artemether-loaded zein nanoparticles was studied by the “sample and separate” method. In brief, artemether-loaded zein nanoparticle powders containing 6 mg artemether were put in 100 mL phosphate buffered saline (PBS) of pH 7.4. The study was performed under sink conditions at 37 ± 0.5 °C with 150 rpm stirring. The beaker was covered with parafilm to minimize water loss via evaporation. In total, 1 mL samples were withdrawn at selected time points (1/12, 1/6, 1/4, 1/2, 1, 2, 3, 4, 5, 6, 24 h). Samples were centrifuged at 10,800 rpm for 30 min and the supernatants were analyzed by HPLC in the same way as drug content. Then, 1 mL PBS at 37 °C was added after each sampling to maintain sink condition. The experiment was repeated 3 times to ensure consistency. Raw artemether was used as control. Mean values and standard deviations were subsequently calculated.

[2] = parameters: method as in PMID 21914160; conditions: intravenous artesunate, clinical practice; cited from earlier work
[3] = cited from earlier work

CO[C@H]1O[C@@H]2O[C@@]3(C)CC[C@H]4[C@H](C)CC[C@@H]([C@H]1C)[C@@]24OO3 [artemether]
hemolytic effect (in words) (red blood cells (RBCs)): destroyed RBCs as much as the positive control | artemether released / dissolved within 5 h [1]: almost all

C[C@H]1[C@H](OC(=O)CCC(=O)O)O[C@@H]2O[C@@]3(C)CC[C@H]4[C@H](C)CC[C@@H]1[C@@]24OO3 [artesunate]
half-life [2]: less than 1 h

Zein
isoelectric point (pI) [3]: 6.2

sodium caseinate
isoelectric point (pI) [3]: 4.5

Source: PMC7865387, “Artemether-Loaded Zein Nanoparticles: An Innovative Intravenous Dosage Form for the Management of Severe Malaria” (International Journal of Molecular Sciences, 2021)
